Experimental data as given in paper PMC7450057, “Enhancing intracellular accumulation and target engagement of PROTACs with reversible covalent chemistry” (Nature Communications, 2020).
pIC50: −log10 of the molar value. “And” between values parts separate entries of the source, which are not always exact repeats. Equal values may be shown once. Read-outs that look alike come from different tables or passages of the source.

Tests used:
BTK-NanoLuc fusion = biological target: T1, BTK-NanoLuc fusion (Homo sapiens, UniProt Q06187); assay: NanoBRET BTK in-cell target engagement assay; type: cell-based; conditions: for NanoBRET(%): Figure 3d, triplicates
T1 construct: host or cells: HEK 293T/17
T1 sequence (Q06187 whole entry, the tested form may be a part): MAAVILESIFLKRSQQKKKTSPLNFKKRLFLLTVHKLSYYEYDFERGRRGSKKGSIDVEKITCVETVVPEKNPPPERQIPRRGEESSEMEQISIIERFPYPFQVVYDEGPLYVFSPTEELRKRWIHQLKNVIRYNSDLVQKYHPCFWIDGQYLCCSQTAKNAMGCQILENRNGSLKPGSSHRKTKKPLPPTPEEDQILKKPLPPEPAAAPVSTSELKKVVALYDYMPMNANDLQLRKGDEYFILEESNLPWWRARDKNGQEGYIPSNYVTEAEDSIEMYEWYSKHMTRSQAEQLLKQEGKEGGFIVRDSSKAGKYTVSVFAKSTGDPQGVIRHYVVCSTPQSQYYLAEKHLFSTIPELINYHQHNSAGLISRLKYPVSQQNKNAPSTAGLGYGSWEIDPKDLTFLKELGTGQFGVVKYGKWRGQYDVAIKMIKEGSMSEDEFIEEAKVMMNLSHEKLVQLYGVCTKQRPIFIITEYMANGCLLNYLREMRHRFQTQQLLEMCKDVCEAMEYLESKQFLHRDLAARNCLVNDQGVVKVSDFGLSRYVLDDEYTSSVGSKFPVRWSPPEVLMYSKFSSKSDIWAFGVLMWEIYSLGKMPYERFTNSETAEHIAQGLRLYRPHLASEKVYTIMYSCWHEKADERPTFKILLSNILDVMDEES
Experimental: The target engagement assay for BTK or CRBN was from Promega (BTK kit, Cat. No. N2500; CRBN kit, Cat. No. CS1810C136) and was performed according to the manufacture’s instruction with some modifications. Briefly, HEK 293/T17 cells (ATCC) were transiently transfected with BTK-NanoLuc® fusion vector or NanoLuc®-CRBN fusion vector (Promega) in 0.125 M CaCl2 and 1x HBS. Forty-eight hours after transfection, the cells were resuspended in Opti-MEM medium (Life Technologies, Cat. No. 11058021) at the density of 2 × 10^5 cells per mL and were plated into 96-well plates (Corning, Cat. No. CLS3600). Cells were incubated with 1.0 µM (BTK) or 0.5 µM (CRBN) NanoBRET™ Tracer and serially diluted unlabeled BTK PROTAC compounds (from 10 to 0.0032 µM, 5-fold dilution) for 2 h at 37 °С with 5% CO2 in an incubator. After 2 h incubation, the 3X Nano-Glo® Substrate with NanoLuc® extracellular inhibitor were added to cells and developed for 3 min at room temperature. BRET signals were collected using a BioTek SYNERGY H1 microplate reader equipped with a 450/80-nm BP filter for donor emission and a 610-nm LP filter for acceptor emission. BRET Ratio was calculated with the equation: [(Acceptor sample/Donor sample)–(Acceptor no tracer control/Donor no tracer control)] × 1000. The IC50 of the compound against its BTK or CRBN tracer was calculated using GraphPad Prism software.

BTK [1] = biological target: BTK (Mus musculus, UniProt P35991); assay: BTK degradation in mouse B-cell lymphoma cell line derived from Eu-Myc mice; type: cell-based; set-up: endogenous in cells; host or cells: B cell lymphoma cell line derived from Eu-Myc mice; conditions: Supplementary Figure 10, replicates, DMSO about 100
BTK (Mus musculus, UniProt P35991), sequence (P35991 whole entry): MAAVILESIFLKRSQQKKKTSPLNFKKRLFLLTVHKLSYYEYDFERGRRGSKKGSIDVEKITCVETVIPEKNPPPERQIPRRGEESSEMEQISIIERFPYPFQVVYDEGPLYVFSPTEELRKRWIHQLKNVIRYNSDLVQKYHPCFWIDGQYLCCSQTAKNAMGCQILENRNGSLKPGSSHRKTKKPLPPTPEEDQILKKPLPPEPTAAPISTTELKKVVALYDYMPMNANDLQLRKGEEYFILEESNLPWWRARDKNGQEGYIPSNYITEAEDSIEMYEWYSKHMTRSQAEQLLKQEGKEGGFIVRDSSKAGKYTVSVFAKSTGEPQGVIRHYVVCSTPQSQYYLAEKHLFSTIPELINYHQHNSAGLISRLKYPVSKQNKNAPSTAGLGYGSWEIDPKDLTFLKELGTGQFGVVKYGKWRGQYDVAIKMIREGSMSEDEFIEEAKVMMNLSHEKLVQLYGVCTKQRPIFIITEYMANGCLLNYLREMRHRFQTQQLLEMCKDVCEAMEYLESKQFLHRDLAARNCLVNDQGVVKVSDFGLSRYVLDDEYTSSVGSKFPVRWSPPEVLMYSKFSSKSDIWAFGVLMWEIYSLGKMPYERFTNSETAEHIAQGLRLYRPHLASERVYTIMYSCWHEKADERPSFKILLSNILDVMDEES
Experimental: MOLM-14 cell line was obtained from Dr. Conneely at Baylor College of Medicine, and the Mino cells were purchased from the American Type Culture Collection (ATCC, Cat. No. CRL-3000). Both cell lines were cultured in RPMI 1640 medium (Thermo Fisher Scientific, Cat. No. MT10040CV) supplemented with 10% fetal bovine serum (GE Healthcare, Cat. No. SH30071.03) and 1% Pen/Strep (Thermo Fisher Scientific, Cat. No. 15140163). The wild-type and C481S BTK XLA cell lines were gifts from Dr. Woyach at The Ohio State University and were cultured in RPMI 1640 medium with 15% fetal bovine serum, 1% Pen/Strep, and 1.0 µg/ml puromycin (Thermo Fisher Scientific, Cat. No. A1113803). HEK 293T/17 cells were purchased from ATCC (Cat. No. CRL-11268) were maintained in DMEM (Thermo Fisher Scientific, Cat. No. MT10013CV) with 10% fetal bovine serum and 1% Pen-Strep. The B cell lymphoma cell line derived from Eu-Myc mice was a gift from Dr. Yulin Li at Houston Methodist Research Institute and cultured in RPMI 1640 medium supplemented with 15% (v/v) fetal bovine serum (FBS), 100 U/mL penicillin, 100 μg/mL streptomycin, and 0.05 mM beta-mercaptoethanol and puromycin (1 μg/mL). Cells were grown at 37 °C with 5% CO2.
The collected cells and spleen tissues were lysed in RIPA lysis buffer (50 mM Tris-HCl, pH 7.4, 150 mM NaCl, 1% NP-40, 0.5% sodium deoxycholate, 0.1% SDS) supplemented with Halt™ Protease and Phosphatase Inhibitor Cocktail (Thermo Fisher Scientific, Cat. No. PI78440) immediately before use. Lysates were centrifuged at 15,000 × g for 10 min at 4 °C and the supernatant was quantified for total protein concentration using the Pierce BCA Protein Assay (Thermo Fisher Scientific, Cat. No. 23225). Thirty micrograms of protein were loaded onto sodium dodecyl sulfate−polyacrylamide gel for electrophoresis (Bio-Rad) and transferred onto PVDF membranes (Millipore, Cat. No. IPVH00010). […] Imaging was performed using the ECL Prime chemiluminescent western blot detection reagents (GE Healthcare, Cat. No. RPN2232) by visualization of the blots to X-Ray film or with an Imager (Kindle Biosciences, Cat. No. D1001). All western blots were subsequently processed and quantified with Imager software. Protein level was normalized to β-actin or GAPDH loading controls.

MOLM-14 cells = assay: AlamarBlue cell viability assay, MOLM-14; conditions: for MOLM-14 Cell Viability%: Figure 2f, 5 replicates
Experimental: (§1) The IC50 was calculated using GraphPad Prism software with a four-parameter dose-response curve fit.

Mino cells = assay: AlamarBlue cell viability assay, Mino; type: cell-based; conditions: for Mino Cell Viability%: Figure 2f, 5 replicates
Experimental: as §1

BTK [2] = biological target: BTK (Homo sapiens, UniProt Q06187); assay: BTK degradation in MOLM-14 cells (western blot); type: cell-based; set-up: endogenous in cells; host or cells: MOLM-14; conditions: Figure 2b, duplicates
BTK (Homo sapiens, UniProt Q06187), sequence (Q06187 whole entry): as the sequence (Q06187 whole entry, the tested form may be a part) above

[3] = Permeability by lipid-PAMPA method (Pharmaron); type: in vitro ADME; conditions: for recovery at 16 h, 10 μM: PAMPA
Experimental: The permeability of compounds was measured using Lipid-PAMPA method by Pharmaron. Preparation of stock solutions: testosterone and methotrexate were used as control compounds in this assay. The stock solutions of positive controls were prepared in DMSO or acetonitrile at the concentration of 10 mM. Prepare a stock solution of compounds in DMSO at the concentration of 10 mM, and further dilute with PBS (pH 7.4). […]
Assay procedures: prepare a 1.8% solution (w/v) of lecithin in dodecane, and sonicate the mixture to ensure a complete dissolution. Carefully pipette 5 μL of the lecithin/dodecane mixture into each acceptor plate well (top compartment), avoiding pipette tip contact with the membrane. Immediately after the application of the artificial membrane (within 10 min), add 300 μL of PBS (pH 7.4) solution to each well of the acceptor plate. Add 300 μL of drug-containing solutions to each well of the donor plate (bottom compartment) in triplicate. Slowly and carefully place the acceptor plate into the donor plate, making sure the underside of the membrane is in contact with the drug-containing solutions in all wells. Replace the plate lid and incubate at 25 °C, 60 rpm for 16 h. After incubation, aliquots of 50 μL from each well of acceptor and donor plate are transferred into a 96-well plate. Add 450 μL of methanol (containing IS: 100 nM Alprazolam, 200 nM Caffeine, 100 nM Tolbutamide) into each well. Cover with plate lid. Vortex at 750 rpm for 100 s. Samples were centrifuged at 3220 × g for 20 min. Determine the compound concentrations by LC/MS/MS. The effective permeability (Pe), in units of centimeter per second, can be calculated using the following equation: LogPe=LogC×−Ln1−drugacceptor/drugequilibrium

Nc1ncnc2c1c(-c1ccc(Oc3ccccc3)cc1)nn2C1CCN(CCOCCOCC(=O)Nc2ccc3c(c2)C(=O)N(C2CCC(=O)NC2=O)C3=O)CC1 (stereo not shown) [MT-802, reference compound]
NanoBRET(%) (BTK-NanoLuc fusion; 1.00E-05 M): 8.881% and 7.144% and 4.414%
NanoBRET(%) (BTK-NanoLuc fusion; 1.60E-08 M): 91.6984% and 97.1324% and 98.4487%
NanoBRET(%) (BTK-NanoLuc fusion; 2.00E-06 M): 18.1369% and 17.2809% and 19.5819%
NanoBRET(%) (BTK-NanoLuc fusion; 3.20E-09 M): 100.618% and 96.0652% and 96.5159%
NanoBRET(%) (BTK-NanoLuc fusion; 4.00E-07 M): 66.8491% and 61.8713% and 67.4598%
NanoBRET(%) (BTK-NanoLuc fusion; 8.00E-08 M): 83.5249% and 103.088% and 96.5333%
pIC50 (BTK-NanoLuc fusion; HEK-293 cells, BTK tracer 1.0 µM, experiment of Fig. 3d, read-out: BTK target engagement IC50): 6.18
BTK quantification (anti-BTK / anti-β-actin) (BTK [1]; 8 nM): 79.5706 and 82.6481
BTK quantification (anti-BTK / anti-β-actin) (BTK [1]; 40 nM): 47.7374 and 48.0125
BTK quantification (anti-BTK / anti-β-actin) (BTK [1]; 200 nM): 22.5968 and 20.4165
MOLM-14 Cell Viability% (MOLM-14 cells; 1.00E-05 M): 30.9193% and 24.2086% and 26.5576% and 19.8014% and 27.7094%
MOLM-14 Cell Viability% (MOLM-14 cells; 1.60E-08 M): 94.0978% and 96.8402% and 91.572% and 84.5934% and 78.4642%
MOLM-14 Cell Viability% (MOLM-14 cells; 2.00E-06 M): 75.5166% and 72.09% and 75.4424% and 57.762% and 72.8197%
MOLM-14 Cell Viability% (MOLM-14 cells; 3.20E-09 M): 96.9942% and 95.4205% and 85.785% and 84.5706% and 80.2089%
MOLM-14 Cell Viability% (MOLM-14 cells; 4.00E-07 M): 88.0029% and 82.2386% and 86.6288% and 76.8507% and 80.4769%
MOLM-14 Cell Viability% (MOLM-14 cells; 6.40E-10 M): 81.9593% and 80.8361% and 77.1985% and 75.6192% and 75.9328%
MOLM-14 Cell Viability% (MOLM-14 cells; 8.00E-08 M): 97.8209% and 89.394% and 93.0772% and 82.672% and 84.7872%
pIC50 (MOLM-14 cells; Homo sapiens, MOLM-14, 72 h, read-out: Cell viability IC50, MOLM-14 cells, 72 h, Alamar Blue): 5.33
Mino Cell Viability% (Mino cells; 1.00E-06 M): 55.7423% and 49.4302% and 55.3437% and 39.2835% and 54.1265%
Mino Cell Viability% (Mino cells; 1.60E-09 M): 110.483% and 109.05% and 93.6147% and 92.6129% and 76.2619%
Mino Cell Viability% (Mino cells; 2.00E-07 M): 89.5862% and 87.1949% and 82.8432% and 61.1711% and 66.0828%
Mino Cell Viability% (Mino cells; 3.20E-10 M): 84.5559% and 99.9483% and 73.8491% and 92.4729% and 74.9908%
Mino Cell Viability% (Mino cells; 4.00E-08 M): 100.53% and 96.2968% and 92.2144% and 82.8217% and 85.9885%
Mino Cell Viability% (Mino cells; 5.00E-06 M): 34.2209% and 40.5007% and 48.9347% and 30.3001% and 41.1685%
Mino Cell Viability% (Mino cells; 8.00E-09 M): 99.2266% and 99.1512% and 91.8158% and 60.6002% and 61.5373%
pIC50 (Mino cells; Homo sapiens, Mino cells, 72 h, Alamar Blue): 6.00
Quantification anti-BTK / anti-β-actin (BTK level vs DMSO) (BTK [2]; 8 nM): 79.5706 and 82.6481
Quantification anti-BTK / anti-β-actin (BTK level vs DMSO) (BTK [2]; 40 nM): 47.7374 and 48.0125
Quantification anti-BTK / anti-β-actin (BTK level vs DMSO) (BTK [2]; 200 nM): 22.5968 and 20.4165

C[C@]12CC[C@H]3[C@@H](CCC4=CC(=O)CC[C@@]43C)[C@@H]1CC[C@@H]2O [Testosterone, testosterone, reference compound]
recovery at 16 h, 10 μM ([3]; Mean, read-out: Recovery%): 91.1%
recovery at 16 h, 10 μM ([3]; single replicates, read-out: Recovery%): 88.7%
Recovery% ([3]; single replicates): 88.88% and 95.84%
-Log Pe ([3]; single replicates, 10 μM, PBS pH 7.4, 25 °C, 16 h, Pe in centimeter per second): 4.51 and 4.29 and 4.30

CN(Cc1cnc2nc(N)nc(N)c2n1)c1ccc(C(=O)N[C@@H](CCC(=O)O)C(=O)O)cc1 [Methotrexate, methotrexate, reference compound]
recovery at 16 h, 10 μM ([3]; Recovery%): 105%
